Test results as given in paper PMC8958511, “Development of Sulfamoylated 4-(1-Phenyl-1H-1,2,3-triazol-4-yl)phenol Derivatives as Potent Steroid Sulfatase Inhibitors for Efficient Treatment of Breast Cancer” (Journal of Medicinal Chemistry, 2022).
“And” between values parts separate entries of the source, which are not always exact repeats. Equal values may be shown once. Read-outs that look alike come from different tables or passages of the source.

How the values were obtained:
[1] = biological target: T1, STS in MCF-7 cells (Homo sapiens, UniProt P08842); test: radioisotope cellular assay with [3H]E1S in MCF-7 cells; format: cell-based; details: for remaining activity at 0.001 µM / remaining activity at 0.01 µM / remaining activity at 0.1 µM: MCF7, 20 h; for remaining activity at 0.001 µM: read-out: residual STS activity [%] 1 nM; for remaining activity at 0.01 µM: read-out: residual STS activity [%] 10 nM; for remaining activity at 0.1 µM: read-out: residual STS activity [%] 100 nM
T1 construct: The radioisotope cellular assay was performed using the MCF-7 cell line; endogenous in cells; host or cells: MCF-7
T1 sequence (P08842 22-583): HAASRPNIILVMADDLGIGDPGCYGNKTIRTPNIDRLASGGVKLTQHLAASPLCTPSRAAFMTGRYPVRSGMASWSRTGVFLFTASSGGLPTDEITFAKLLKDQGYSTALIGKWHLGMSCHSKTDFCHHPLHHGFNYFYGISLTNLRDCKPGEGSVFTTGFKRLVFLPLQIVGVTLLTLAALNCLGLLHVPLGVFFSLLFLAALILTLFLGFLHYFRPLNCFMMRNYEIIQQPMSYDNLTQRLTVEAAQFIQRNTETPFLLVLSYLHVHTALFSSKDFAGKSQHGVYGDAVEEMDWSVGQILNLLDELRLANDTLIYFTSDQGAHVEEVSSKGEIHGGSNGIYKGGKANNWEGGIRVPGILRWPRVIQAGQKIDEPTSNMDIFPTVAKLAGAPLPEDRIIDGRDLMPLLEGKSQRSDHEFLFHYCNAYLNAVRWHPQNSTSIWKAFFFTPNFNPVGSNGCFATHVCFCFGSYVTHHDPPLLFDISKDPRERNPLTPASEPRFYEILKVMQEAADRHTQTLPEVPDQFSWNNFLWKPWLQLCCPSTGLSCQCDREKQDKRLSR
Method: All compounds were initially tested for their in cell inhibitory action at a 100 nM concentration.
The inhibitory potency of the synthesized compounds was examined in two ways, including an enzymatic assay and the radioisotope cellular test. […] The radioisotope cellular assay was performed using the MCF-7 cell line in the presence of radiolabeled [^3H]E1S.
The evaluation of the inhibitory effect of each compound with breast cancer cells was performed using a previously described method (27) with some modifications. MCF-7 cells were maintained in Dulbecco’s modified Eagle medium supplemented with 10% fetal bovine serum and cultured in the above medium until 80% confluence. […] After incubation, the medium (0.45 mL) was collected from each well, and the product formed by STS hydrolysis was extracted with toluene (4 mL). STS activity was measured using a MicroBeta radioluminometer (PerkinElmer). Assays with MCF-7 cells were carried out in triplicate.

[2] = tested on: STS; parameters: method as in earlier work; details: STS inhibitory effect, system not given; ref 14−16; cited from earlier work
[3] = biological target: T2, STS isolated from the human placenta (Homo sapiens, UniProt P08842); test: radioisotope enzymatic assay with STS isolated from human placenta and [3H]E1S; format: biochemical; details: for remaining activity at 0.5 µM: read-out: residual STS activity [%]; for residual STS activity [%]: 0.5 μM inhibitor concentration, substrate [3H]E1S, 3 nM, triplicate
T2 construct: radioisotope enzymatic assay using STS isolated from the human placenta; from tissue; host or cells: human placenta
T2 sequence (P08842 22-583): T1 sequence (P08842 22-583)
Method: The inhibitory potency of the synthesized compounds was examined in two ways, including an enzymatic assay and the radioisotope cellular test. The enzymatic assay was performed using the STS enzyme isolated from human placenta and using radiolabeled [^3H]E1S as a substrate.
The total volume of the reaction mixture was 100 μL. […] After incubation, the reaction mixture (90 μL) was collected from each well, and the product formed by STS hydrolysis was extracted with toluene (0.5 mL). STS activity was measured using a MicroBeta radioluminometer (PerkinElmer). Enzymatic assays were carried out in triplicate.

[4] = format: in vivo; details: Table S1, MTD study, 50 mg/kg
Method: The mice were thus weighed, and their general health was observed. […] At the end of the study, the mice were sacrificed by dislocation of the cervical vertebrae, and the internal organs were examined macroscopically.
The mice were weighed, and their general health was observed. […] At the end of the MTD study, the autopsy was performed, and the internal organs (liver, kidney, and spleen) were weighed and macroscopically assessed.

[5] = tested on: 67NR mouse mammary tumor cells; test: antitumor activity in 67NR orthotopic mouse breast carcinoma model; format: in vivo, BALB/c mice; details: for body weight of treated tumor-bearing mice (observation) / tumor growth inhibition (TGI) / mice responded to the treatment / mice with much larger tumor than the mean control volume / mice with tumor volume reduced by approx. 50% compared to the TV control: 50 mg/kg b.w. per os; for tumor growth inhibition (TGI): 5 days a week, 67NR tumor, N = 9, vs control group; for mice responded to the treatment / mice with much larger tumor than the mean control volume / mice with tumor volume reduced by approx. 50% compared to the TV control: nine mice/group
Method: The tumor volume (TV) and body weight were measured three times a week. Results for individual groups are reported in Figure S5, Supporting Information. Based on TV data, the tumor growth inhibition (TGI) was calculated for groups that received compounds and compared to that of the control group. […] The body weight of the treated animals was monitored during the study, and the body weight change (BWC) index was calculated (Figure 4). […] Body weight loss was observed between D2 and D11 and reached 4.5% at most.
The growth of tumors has been observed.

[6] = biological target: T3, STS activity in murine livers and tumors (Mus musculus, UniProt P50427); test: determination of STS activity in murine livers and tumors of treated mice; details: for Residual STS activity [%] Liver: liver tissue of mice treated per os at 50 mg/kg b.w.; for Residual STS activity [%] Tumor: tumor tissue of mice treated per os at 50 mg/kg b.w.
T3 sequence (P50427 23-624): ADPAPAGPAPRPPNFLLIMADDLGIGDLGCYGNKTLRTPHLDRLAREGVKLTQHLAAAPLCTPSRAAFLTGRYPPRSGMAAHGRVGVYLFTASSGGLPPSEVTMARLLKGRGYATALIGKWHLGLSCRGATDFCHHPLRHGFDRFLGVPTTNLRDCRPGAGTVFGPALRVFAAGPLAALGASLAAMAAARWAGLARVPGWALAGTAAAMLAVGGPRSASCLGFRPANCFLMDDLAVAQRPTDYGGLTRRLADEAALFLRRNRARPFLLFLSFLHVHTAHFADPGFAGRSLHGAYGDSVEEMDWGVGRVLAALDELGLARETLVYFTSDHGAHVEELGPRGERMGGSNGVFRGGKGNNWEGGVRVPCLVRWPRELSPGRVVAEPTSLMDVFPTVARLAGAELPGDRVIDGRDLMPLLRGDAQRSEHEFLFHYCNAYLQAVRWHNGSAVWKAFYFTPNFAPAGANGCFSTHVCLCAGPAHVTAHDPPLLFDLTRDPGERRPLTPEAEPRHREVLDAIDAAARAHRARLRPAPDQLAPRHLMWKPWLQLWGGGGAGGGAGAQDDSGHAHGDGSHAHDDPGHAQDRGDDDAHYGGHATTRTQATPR
Method: Then, the samples were subjected to sonication in five cycles of 10 s each and centrifuged for 10 min at 14 000g to pellet the tissue debris. Total protein concentrations were determined in the obtained lysates using the Bradford method, and 100 μg of the total protein was used for each reaction as a source of STS activity. […] E1S (4 × 10^4 Bq, 3 nM) and 20 mM Tris-HCl, pH 7.4. The volume of the reaction mixtures was adjusted to 100 μL with water. After incubation, 60 μL of each reaction mixture was collected, and the product formed by STS hydrolysis was extracted with toluene (0.5 mL). STS activity was measured using a MicroBeta radioluminometer (PerkinElmer). Assays were carried out in triplicate.

[7] = blood morphology, blood biochemistry and organ weights of mice with 67NR tumor; details: for spleen weight: 50 mg/kg b.w. per os; for spleen weight / ALT / AST / creatinine / urea: mice with 67NR tumor; for HCT / HGB / MCH / MCHC / MCV / MPV / PCT / PDW / PLT / RBC / RDW: Table S2, mice with 67NR tumor, 50 mg/kg; for ALT / AST / creatinine / urea: Table S3, plasma, 50 mg/kg per os, N=9
Method: At the end of the study, the autopsy of the animals was performed: blood was collected for further analyses of the morphology (Table S2, Supporting Information) and biochemistry (Table S3 and Figure S6, Supporting Information) and for the determination of the plasma estradiol level using the ELISA method.
Mice were injected orthotopically (in the mammary gland fat pad) with 67NR mouse mammary tumor cells derived from in vitro culture (1.5 × 10^5 cells/0.05 mL Hanks fluid/mouse). The growth of tumors has been observed. […] Animals were observed during the next 17 days and euthanized. During observation, body weight and tumor growth were monitored three times a week. The volume of the tumors was calculated according to the following formula: TV = a^2·b/2 [mm^3], (where: a—width and b—length of the tumor). Blood, tumor tissue, and liver were harvested during autopsy for further analyses. Blood aliquots (about 500 μL) were collected in EDTA containing vials for morphology analysis (Mythic 18 analyzer, Orphee), and then, the plasma was collected (centrifuged at 2500g for 15 min at 4 °C within 1 h after collection) for biochemical parameter analysis (Cobas c111, Roche).

[8] = MCF-7 cells, substrate [3H]E1S, 3 nM

Row | SMILES | remaining activity at 0.5 µM [3] [%] | remaining activity at 0.001 µM [1] [%] | remaining activity at 0.01 µM [1] [%] | remaining activity at 0.1 µM [1] [%] | IC50 [1, 8] [nM] | GRAN [4] | HCT [4] | HGB [4] | LIMF [4] | MCH [4] | MCHC [4] | MCV [4] | MON [4] | PLT [4] | RBC [4] | RDW [4] | WBC [4] | mice responded to the treatment [5] [mice] | mice with tumor volume reduced by approx. 50% compared to the TV control [5] [mice] | Residual STS activity [%] Liver [6] | also measured
1 | NS(=O)(=O)Oc1ccc2c3c(c(=O)oc2c1)CCCCC3 [Irosustat, reference compound] |  |  |  |  |  |  |  |  |  |  |  |  |  |  |  |  |  |  |  |  | residual STS activity [%] 1 nM ([1]; MCF-7 cells, 1 nM inhibitor, substrate [3H]E1S, 3 nM, triplicate): 16.8% and 16.8 ± 0.5%; residual STS activity [%] 10 nM ([1]; MCF-7 cells, 10 nM inhibitor, substrate [3H]E1S, 3 nM, triplicate): 12.9% and 12.9 ± 0.77%; residual STS activity [%] 100 nM ([1]; MCF-7 cells, 100 nM inhibitor, substrate [3H]E1S, 3 nM, triplicate): 2.4% and 2.4 ± 0.07%; IC50 [2]: 8 nM
2 | NS(=O)(=O)Oc1ccc(-c2cn(-c3cccc(Cl)c3)nn2)cc1 [4a, 4-(1-(3-Chlorophenyl)-1H-1,2,3-triazol-4-yl)phenyl Sulfamate] | 19.5 ± 0.97 | 38.2 | 28.1 ± 1.12 | 2.4 ± 0.07 | 1.9 ± 0.06 | 13,2±3,6% | 41±0,2% | 15,1±0,2 g/dL | 83,5±4,1% | 17,3±0,3 pg | 36,9±0,5 g/dL | 46,8±0,2 fL | 3,3±0,6% | 518±49 10x3/uL | 8,8±0,1 10x6/uL | 17,9±0,6% | 4,5±0,3 10x3/uL | 7 | 5 | 12,1% | body weight of treated tumor-bearing mice (observation) [5]: A body weight increase was observed; tumor growth inhibition (TGI) [5]: 47%; mice with much larger tumor than the mean control volume [5]: 1 mice; Residual STS activity [%] Tumor [6]: 5,8%; spleen weight [7]: Significantly smaller spleens weights; HCT [7]: 35,9±3,2%; HGB [7]: 13,5±1,1 g/dL; MCH [7]: 17,7±0,5 pg; MCHC [7]: 37,6±0,7 g/dL; MCV [7]: 47,1±1 fL; MPV [7]: 4,9±0,1 fL; PCT [7]: 0,250±0,03%; PDW [7]: 24,9±3 fL; PLT [7]: 503,3±59,8 x103/uL; RBC [7]: 7,6±0,8 x106/uL; RDW [7]: 18±0,5%; ALT [7]: 27,3±3,9 U/L; AST [7]: 91,7±15,4 U/L; creatinine [7]: 5,75±1,52 umol/L; urea [7]: 7,92±0,66 mmol/L
3 | NS(=O)(=O)Oc1ccc(-c2cn(-c3cc(F)cc(F)c3)nn2)cc1 [5l, 4-(1-(3,5-difluorophenyl)-1H-1,2,3-triazol-4-yl)phenyl sulfamate] | 17.3 | 13.6 | 1 | 1 | 0.21 ± 0.01 | 10,6±0,2% | 42±1,9% | 15,4±0,5 g/dL | 86,6±0,2% | 17,3±0,1 pg | 36,6±0,4 g/dL | 47,2±0,2 fL | 2,9±0,4% | 596±64 10x3/uL | 8,9±0,4 10x6/uL | 17,3±0,2% | 4,2±0,6 10x3/uL | 8 | 3 | 10,1% | residual STS activity [%] [3]: 17.34 ± 0.87%; tumor growth inhibition (TGI) [5]: 39%; mice with much larger tumor than the mean control volume [5]: 1 mice; Residual STS activity [%] Tumor [6]: 1,3%; spleen weight [7]: Significantly smaller spleens weights; HCT [7]: 34,7±2,1%; HGB [7]: 13,3±0,8 g/dL; MCH [7]: 17,8±0,3 pg; MCHC [7]: 38,3±0,4 g/dL; MCV [7]: 46,4±0,7 fL; PCT [7]: 0,233±0,035%; PDW [7]: 29,3±4,6 fL; PLT [7]: 463,1±74 x103/uL; RBC [7]: 7,5±0,5 x106/uL; RDW [7]: 18,4±1%; creatinine [7]: 5,6±1,65 umol/L; urea [7]: 8,1±0,7 mmol/L
4 | NS(=O)(=O)Oc1ccc(-c2cn(-c3cc(Cl)cc(Cl)c3)nn2)cc1 [4b, 4-(1-(3,5-Dichlorophenyl)-1H-1,2,3-triazol-4-yl)phenyl Sulfamate] | 13.3 | 63.7 ± 2.55 | 17.8 ± 0.62 | 2 ± 0.1 | 1.71 ± 0.05 | 11,0±1,7% | 44,1±1,3% | 16,4±0,6 g/dL | 85,7±1,7% | 17,4±0,01 pg | 37,1±0,4 g/dL | 46,9±0,5 fL | 3,3±0,5% | 533±34 10x3/uL | 9,4±0,4 10x6/uL | 17,5±0,6% | 5,1±1,6 10x3/uL | 7 | 5 | 14,5% | residual STS activity [%] [3]: 13.32 ± 0.67%; side effects and toxicity ([5]; 50 mg/kg): no evidence of side effects and toxicity; body weight of treated tumor-bearing mice (observation) [5]: A body weight increase was observed; Residual STS activity [%] Tumor [6]: 5,1%; spleen weight [7]: Significantly smaller spleens weights; HCT [7]: 36,6±2,7%; HGB [7]: 13,7±0,9 g/dL; MCH [7]: 17,6±0,5 pg; MCHC [7]: 37,6±0,6 g/dL; MCV [7]: 46,8±0,9 fL; MPV [7]: 4,9±0,2 fL; PCT [7]: 0,248±0,03%; PDW [7]: 27,1±3,2 fL; PLT [7]: 512,2±72,3 x103/uL; RBC [7]: 7,8±0,7 x106/uL; RDW [7]: 18,2±0,5%; ALT [7]: 27,1±3,8 U/L; AST [7]: 86,6±18,5 U/L; creatinine [7]: 4,53±1,48 umol/L; urea [7]: 6,94±0,69 mmol/L
5 | NS(=O)(=O)Oc1ccc(-c2cn(-c3cccc(F)c3)nn2)cc1 [5g] | 37.9 ± 1.9 | 57.3 ± 3.44 | 1 | 1 ± 0.04 | 1.69 ± 0.08 | 12,4±1,7% | 41,1±0,5% | 15,2±0,2 g/dL | 84,3±2,3% | 17,2±0,2 pg | 36,7±0,2 g/dL | 46,9±0,3 fL | 3,4±0,6% | 522±33 10x3/uL | 8,8±0,01 10x6/uL | 17,4±0,3% | 4,9±1,3 10x3/uL | 8 | 5 | 13,6% | tumor growth inhibition (TGI) [5]: 42%; Residual STS activity [%] Tumor [6]: 5,2%; spleen weight [7]: Significantly smaller spleens weights; HCT [7]: 35±2,4%; HGB [7]: 13,5±0,9 g/dL; MCH [7]: 18,3±0,9 pg; MCHC [7]: 38,6±0,6 g/dL; MCV [7]: 47,4±2,8 fL; MPV [7]: 5±0,1 fL; PCT [7]: 0,255±0,04%; PDW [7]: 26,9±4,8 fL; PLT [7]: 508,6±69 x103/uL; RBC [7]: 7,4±0,7 x106/uL; RDW [7]: 19,1±1,5%; AST [7]: 102,2±23,1 U/L; creatinine [7]: 6,51±1,49 umol/L; urea [7]: 8,83±1,32 mmol/L
